One data set addresses T1, CYP3A (Mus musculus, UniProt Q64459).
T1 sequence (Q64459 1-504): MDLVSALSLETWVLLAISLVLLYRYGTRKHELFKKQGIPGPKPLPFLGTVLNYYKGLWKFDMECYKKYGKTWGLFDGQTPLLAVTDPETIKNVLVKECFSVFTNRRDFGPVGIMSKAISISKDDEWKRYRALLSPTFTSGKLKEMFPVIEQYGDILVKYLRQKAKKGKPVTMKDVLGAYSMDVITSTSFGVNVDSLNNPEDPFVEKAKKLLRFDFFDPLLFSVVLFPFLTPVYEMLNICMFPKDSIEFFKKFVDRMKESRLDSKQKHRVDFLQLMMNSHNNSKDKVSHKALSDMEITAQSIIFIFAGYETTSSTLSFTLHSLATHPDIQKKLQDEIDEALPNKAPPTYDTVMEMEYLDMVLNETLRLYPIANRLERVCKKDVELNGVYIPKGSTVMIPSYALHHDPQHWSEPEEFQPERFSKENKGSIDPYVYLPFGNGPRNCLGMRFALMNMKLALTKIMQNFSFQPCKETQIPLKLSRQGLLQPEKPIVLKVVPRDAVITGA
Kind of data set: in vitro. As to conditions: 2 or 3 inhibitor concentrations, substrate 0.05 to 8 μM. As for the experimental part: (§1) Liver samples were taken immediately after necropsy, frozen in ethanol and dry ice, and stored at −80°C until use. The microsomal fractions were prepared using a calcium aggregation method. Microsomal protein concentration was determined with a commercially available kit (Bio-Rad laboratories Inc., Hercules, CA, USA) according to the manufacturer's instructions.
(§2) In mice, O-dealkylation of 7-ethoxyresorufin is catalyzed by CYP1A1 and CYP1A2 [15], and O-dealkylation of 7-benzyloxyresorufin by CYP3A11 enzyme. The activities of CYP1A and CYP3A were determined as a rate of ethoxy- (EROD) and benzyloxy- (BROD) resorufin O-dealkylation, respectively. Incubation mixtures contained microsomal protein (0.2 mg), phosphate buffer (pH 7.4, 50 mM), and appropriate substrate (1 μM of 7-ethoxyresorufin or 2 μM of 7-benzyloxyresorufin). Reactions were initiated by the addition of 0.5 mM NADPH. The reaction mixture, in a final volume of 500 μL, was incubated in a water bath at 37°C for 5 min (EROD) or 7 min (BROD), and afterwards the reactions were terminated with ice-cold methanol (500 μL), followed by centrifugation at 7,500 ×g. Resorufin concentrations were measured as previously described. EROD and BROD activities were expressed as pmol of resorufin per milligram protein and minute.
(§3) EROD and BROD activities were initially evaluated in the presence of quercetin, naringenin, and sesamin at nine concentrations from 5 to 100000 nM. To examine the inhibition mode, the activities were determined in the presence of 2 or 3 inhibitor concentrations over the substrate concentration ranges 0.005 to 4.0 μM for EROD and 0.05 to 8 μM for BROD, respectively. The stock solutions of quercetin, naringenin, and sesamin were prepared in DMSO and added to incubations to yield final concentrations of 5, 10, 50, 100, 500, 1000, 2000, […], and 100000 nM. The final DMSO content in the incubations was 0.5%. The control incubations contained the same concentration of DMSO.
(§4) Comparison of enzymatic activities in the absence of the inhibitors between studied groups was performed on logarithmically transformed values using a mixed model with fixed effect of treatment (SAS version 9.3, SAS Institute Inc., Cary, NC, USA). The IC50 (concentration causing 50% reduction of control activity) and Ki values for inhibitors were calculated by nonlinear regression analysis using GraphPad prism version 4.0 for Windows (GraphPad, San Diego, CA, USA). Comparisons of IC50 and Ki values between the studied groups were performed on logarithmically transformed values using one-way analysis of variance, followed by the Tukey multiple-comparisons test. Differences were regarded as significant when P < 0.05.

The target in the next data set is T2, CYP3A (CYP3A11) (Mus musculus, UniProt Q64459).
T2 sequence (Q64459 1-504): T1 sequence (Q64459 1-504)
Kind of data set: in vitro. As to conditions: CD-1, mouse, microsomes; for IC50 at 7 min: pH 7.4, IC50, CYP3A (BROD), 2 μM 7-benzyloxyresorufin. The procedure:
as §1, §2, §3, §4

The subject of the next data set is CYP1A. Description: In vitro inhibition of EROD (7-ethoxyresorufin O-dealkylase) activity in hepatic microsomes. As to conditions: for Inhibition of EROD activity: all exposure groups, concentrations 5 to 100000 nM; for Ki at 5 min: CD-1, mouse, liver microsomes, pH 7.4, probe 7-ethoxyresorufin (0.005 to 4.0 µM). As for the experimental part:
as §1, §2, §3, §4
Background: Liver microsomes are a subcellular fraction often used to study metabolism.

Data set [1] deals with CYP1A (CYP1A1 and CYP1A2). The description is as above. As to conditions: CD-1, mouse, liver microsomes, pH 7.4, probe 7-ethoxyresorufin (1 µM), IC50, CYP1A (EROD), geometric mean (confidence interval), 1 μM 7-ethoxyresorufin. The procedure:
as §1, §2, §3, §4

[2] abbreviates: microsomes from high POPs-exposed mice, geometric mean (confidence interval).
[3] abbreviates: microsomes from low POPs-exposed mice, geometric mean (confidence interval).
Where [4] appears, read: microsomes from unexposed mice, geometric mean (confidence interval).
Where [5] appears, read: pH 7.4, Ki values, BROD activity, range over the unexposed, low- and high-exposed groups.
[6] abbreviates: pH 7.4, Ki, CYP3A (BROD), microsomes from high POPs-exposed mice, geometric mean (confidence interval).
Where [7] appears, read: pH 7.4, Ki, CYP3A (BROD), microsomes from low POPs-exposed mice, geometric mean (confidence interval).
Setting [8] is: pH 7.4, Ki, CYP3A (BROD), microsomes from unexposed mice, geometric mean (confidence interval).

Each structure is given as a SMILES string.

The IC50 is the point on the concentration scale where inhibition reaches its midpoint. Low values mean inhibition by little substance, high ones a need for much substance. As usually defined, the Ki is a dissociation constant, usually derived from enzyme kinetics or from competition with a known ligand. High values mean lower affinity, low ones higher affinity. In the case of `O=C1C[C@@H](c2ccc(O)cc2)Oc2cc(O)cc(O)c21` [Naringenin, naringenin], at CYP3A, the “Mode of inhibition of BROD activity” value is reported as “noncompetitively inhibited”. The IC50 at 7 min stood at 43.1 µM against CYP3A (CYP3A11) (setting [2]), 49.1 µM against CYP3A (CYP3A11) (setting [3]) and 40.3 µM against CYP3A (CYP3A11) (setting [4]). The Ki at 7 min was 39.3 to 45.8 µM at CYP3A (CYP3A11) (setting [5]), 39.3 µM on CYP3A (CYP3A11) (setting [6]), 45.8 µM at CYP3A (CYP3A11) (setting [7]) and 42.1 µM on CYP3A (CYP3A11) (setting [8]). Also, the “Inhibition of EROD activity” value in the data set on CYP1A is “No inhibition”; in the data set on CYP1A (listed as naringenin) it was “Neither naringenin nor sesamin inhibited”.

Turning to `O=c1c(O)c(-c2ccc(O)c(O)c2)oc2cc(O)cc(O)c12` [Quercetin, quercetin], on CYP3A, the “Mode of inhibition of BROD activity” value is recorded as “noncompetitively inhibited”. Besides, the figures for the IC50 at 7 min on CYP3A (CYP3A11) (setting [2]), against CYP3A (CYP3A11) (setting [3]) and against CYP3A (CYP3A11) (setting [4]) were 35.7 µM, 27.1 µM and 30.2 µM, respectively. The Ki at 7 min at CYP3A (CYP3A11) (setting [5]) was 64.9 to 75.3 µM; on CYP3A (CYP3A11) (setting [6]), 75.3 µM; at CYP3A (CYP3A11) (setting [7]), 64.9 µM; on CYP3A (CYP3A11) (setting [8]) it was 67.1 µM. Besides, the IC50 at 5 min in data set [1] (microsomes from high POPs-exposed mice) stood at 5.8 µM; in data set [1] (microsomes from low POPs-exposed mice) it was 5.1 µM; in data set [1] (microsomes from unexposed mice), 5.4 µM. Moreover, in the data set with CYP1A (2 or 3 inhibitor concentrations, substrate 0.005 to 4.0 μM), the “Mode of inhibition of EROD activity” value was “competitively inhibited”. For the same compound, the Ki at 5 min in the data set on CYP1A (Ki values, EROD activity, range over the unexposed, low- and high-exposed groups) was 1.7 to 2.6 µM; in the data set on CYP1A (Ki, CYP1A (EROD), microsomes from high POPs-exposed mice, geometric mean (confidence interval)) it was 2.6 µM; in the data set with CYP1A (Ki, CYP1A (EROD), microsomes from low POPs-exposed mice, geometric mean (confidence interval)), 2.6 µM; in the data set on CYP1A (Ki, CYP1A (EROD), microsomes from unexposed mice, geometric mean (confidence interval)), 1.7 µM. For the same compound, the “Inhibition of EROD activity” value in the data set on CYP1A is given as “strongly inhibited”.

For the origin of these results see paper PMC5439065, “Effect of Naringenin, Quercetin, and Sesamin on Xenobiotica-Metabolizing CYP1A and CYP3A in Mice Offspring after Maternal Exposure to Persistent Organic Pollutants” (BioMed Research International, 2017).
